Patent US9096539B2, “Substituted 4,5-dihydro-2H-benzo[e]indazole-9-carboxylates for the treatment of diabetes and related disorders” (Council of Scientific & Industrial Research, priority 2012, dated 2015)
Where two headings read alike, the source gives them in different places.

Assays:
[1] = molecular target: T1, human recombinant PTP1B enzyme (Homo sapiens, UniProt P18031); assay: Protein tyrosine phosphatase-1B assay (colorimetric kit BML-AK 822); assay type: biochemical; settings: read-out: % Inhibition (PTP-1B)
T1 construct: purchased Enzo Life Sciences, USA BML-AK 822
T1 sequence (P18031 1-322 limits assumed): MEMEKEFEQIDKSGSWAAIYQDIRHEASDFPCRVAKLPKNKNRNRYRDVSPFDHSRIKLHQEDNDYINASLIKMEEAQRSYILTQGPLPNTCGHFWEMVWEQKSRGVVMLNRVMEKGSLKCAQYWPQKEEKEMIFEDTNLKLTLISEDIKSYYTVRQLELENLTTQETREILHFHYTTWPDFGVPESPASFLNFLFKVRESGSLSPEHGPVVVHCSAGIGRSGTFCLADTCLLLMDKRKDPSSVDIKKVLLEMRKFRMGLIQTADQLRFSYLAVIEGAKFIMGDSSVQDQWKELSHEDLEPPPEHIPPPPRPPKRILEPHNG
Procedure: Assay was done according to the Kit manufacturers protocol, in brief the reaction was carried out in 96 well flat bottomed microtiter plate by the addition of assay buffer, solution of test compounds and diluted PTP1B enzyme. Enzyme reaction was initiated by addition of 50 μl of warmed 2× substrate then incubated the plate at 30° C. for 30 min. After incubation for 30 min. Reaction was terminated by addition of 25 μl of biomol red reagent and mixed thoroughly by repeated pipetting. […] Volumes and dilution of other component were accordingly as instructed in the manual provided in the kit. PTP1B phosphatase acting on the phosphopeptide substrate and release phosphate. The detection of free phosphate released is based on classic Malachite green assay. After adding biomol red to reaction wells after 30 minutes of incubation as described earlier the plate was incubated for another 20 min to develop the colour. Absorbance was recorded at 620 nm. on a microplate reader.

[2] = Table 5, evaluated at 10 μM concentration

Row | SMILES | melting point | inhibition at 10 µM [1] | inhibition at 10 µM [1, 2]
1 | COC(=O)c1c(SC)cc(-c2ccc(Br)cc2)c2c1-c1cn(-c3ccccc3)nc1CC2 [compound 1, methyl 6-(4-bromophenyl)-8-(methylthio)-2-phenyl-4,5-dihydro-2H-benzo[e]indazole-9-carboxylate] | 164 to 166 °C | 9.2% | –
2 | COC(=O)c1c(S(C)(=O)=O)cc(-c2ccc(F)cc2)c2c1-c1cn(-c3ccccc3)nc1CC2 [compound 10, methyl 6-(4-fluorophenyl)-8-(methylsulfonyl)-2-phenyl-4,5-dihydro-2H-benzo[e]indazole-9-carboxylate] | 245 to 247 °C | – | 1.52%
3 | COC(=O)c1c(SC)cc(-c2ccc(F)cc2)c2c1-c1cn(-c3ccccc3)nc1CC2 [compound 8, methyl 6-(4-fluorophenyl)-8-(methylthio)-2-phenyl-4,5-dihydro-2H-benzo[e]indazole-9-carboxylate] | 182 to 184 °C | – | 14.6%
4 | COC(=O)c1c(SC)cc(-c2ccc(OC)cc2)c2c1-c1cn(-c3ccccc3)nc1CC2 [compound 3, methyl 6-(4-methoxyphenyl)-8-(methylthio)-2-phenyl-4,5-dihydro-2H-benzo[e]indazole-9-carboxylate] | 172 to 174 °C | – | 8.43%
5 | COC(=O)c1c(SC)cc(-c2ccc(Cl)cc2)c2c1-c1cn(-c3ccccc3)nc1CC2 [compound 2, methyl 6-(4-chlorophenyl)-8-(methylthio)-2-phenyl-4,5-dihydro-2H-benzo[e]indazole-9-carboxylate] | 159 to 162 °C | – | 8%
